# Assay results as given in ChEMBL document CHEMBL1150497, “Imidazol-1-ylalkanoate esters and their corresponding acids. A novel series of extrinsic 1H NMR probes for intracellular pH” (Bioorg Med Chem Lett, 1992).
# Assay: pKa value by 1H NMR spectroscopy
# Type: physicochemical
row,SMILES,pKa
1,O=C(O)Cn1ccnc1,7.23
2,CCOC(=O)CC(C(=O)O)n1ccnc1 (centres undefined),6.86
3,CCOC(=O)C(C(=O)OCC)n1ccnc1,5.02
4,CCOC(=O)CC(CC(=O)OCC)n1ccnc1,6.45
5,CCOC(=O)CC(C(=O)OCC)n1ccnc1 (centres undefined),6.02
6,COC(=O)Cn1ccnc1,7.1
7,O=C(O)CC(CC(=O)O)n1ccnc1,7.37
8,O=C(O)CC(C(=O)O)n1ccnc1 (centres undefined),7.32
9,c1c[nH]cn1 [IMIDAZOLE],7.14
